Experimental findings from patent publication US20240294499A1, “TARGETED PROTEIN DEGRADATION USING BIFUNCTIONAL COMPOUNDS THAT BIND UBIQUITIN LIGASE AND TARGET MCL-1 PROTEIN” (Captor Therapeutics S.A., priority 2021, published 2024) are described below.

Molecules are shown by their SMILES.

The data set deals with iPSC-derived cardiomyocytes (iPSC-CMs). Nature of the data set: caspase 3/7 activity in iPSC-derived cardiomyocytes. To be noted: 100 μM, FIG. 5. It is filed as cell-based.

For `Cc1c2c(nn1C)CSCc1cc(n(C)n1)CSc1cc(c3ccccc3c1)OCCCc1c(C(=O)O)n(C)c3c-2c(Cl)ccc13` [AZD-5991], the “cell death in iPSC-CMs (caspase 3/7 assay, concentration point not displayed)” value is given as “excessive cell death”.
